This test deals with TNF-α. In words: Cytokine inhibitory activity in cells: LPS-induced TNF-α in RAW 264.7. In kind it is cell-based, murine. Particulars: for inhibition at 1 µM / inhibition at 10 µM / inhibition at 100 µM / inhibition at 1000 µM: Mus musculus, RAW264.7, read-out: TNF-α Inhibition Rate (%); for inhibition at 1 µM / inhibition at 10 µM / inhibition at 100 µM / inhibition at 1000 µM / TNF-α Inhibition Rate (%): RAW 264.7, LPS 1 μg/mL; for inhibitory activity in RAW 264.7 cell line on the production of TNF-α, in words: compared to the control compounds. On the procedure: General reagents used were purchased from Sigma-Aldrich chem. Co. and cytokine inhibitory activities were tested as follows. Mediums and reagents used in cell culture were purchased from GIBCO BRL (USA), and mouse TNF-α ELISA kit was purchased from R&D system (USA). The apparatus used ELISA reader (Spectra max-Plus 384, Molecular Device, USA).
Murine macrophage cell line RAW 264.7 was kindly provided by Korean Tissue Culture Center (KTCC). The cell line was cultured in DMEM medium containing 10% FBS, in a cell culturing device at the condition of 37° C., 5% CO2. First, murine RAW 264.7 was cultured in DMEM medium containing 10% FBS for about 24 hours, and cells were planted 200 μL each in 96 well plates at the concentration of 5×10^5/mL and cultured for about 24 hours. Then, test compounds were treated at various concentrations and then reacted at 37° C. for about 1 hour, wherein 1 μg/mL of lipopolysaccharide (LPS) was added thereto and reacted at 37° C. for about 12 hours. The supernatant was recovered and the amount of murine TNF-α on the medium was quantitated using ELISA kit. Thalidomide was respectively used as a positive and a negative control to compare the activities and the results are shown in the following tables 4a -4c.

Each structure is given as a SMILES string.

Take `Cc1cc2c(c(Cl)n1)C(=O)OCC2` [Ex. 20, 8-chloro-6-methyl-3,4-dihydro-pyrano[3,4-c]pyridine-1-on]: the inhibition at 1 µM (test conc. 1 μM) stood at 15%. Further, for the setting “test conc. 10 μM”, the inhibition at 10 µM was determined as 21%. Moreover, under “test conc. 100 μM”, the inhibition at 100 µM was found to be 31%. Also, the inhibition at 1000 µM (test conc. 1 mM) amounted to 41%.
Regarding `COc1nc(C)cc2c1C(=O)OCC2` [Ex. 22, 8-methoxy-6-methyl-3,4-dihydro-pyrano[3,4-c]pyridine-1-on], the inhibition at 10 µM (test conc. 10 μM) came to 10%. Under “test conc. 100 μM”, the inhibition at 100 µM was 17%. For the same compound, where the note is “test conc. 1 mM”, the inhibition at 1000 µM is 30%.
The matching figures for `Cc1cc2c(c(C)n1)C(=O)OCC2` [Ex. 26, 6,8-dimethyl-3,4-dihydro-pyrano[3,4-c]pyridine-1-on]: 6%, 17% and 28%.
With `Cc1cc2c(c(-c3ccco3)n1)C(=O)OCC2` [Ex. 27, 6-methyl-8-furan-2-yl-3,4-dihydro-pyrano[3,4-c]pyridine-1-on], the inhibition at 1 µM (test conc. 1 μM) worked out at 30%. Moreover, where the note is “test conc. 10 μM”, the inhibition at 10 µM turned out to be 43%. Further, for the setting “test conc. 100 μM”, the inhibition at 100 µM was 68%. Besides, under “test conc. 1 mM”, the inhibition at 1000 µM worked out at 81%.
In the case of `Cc1cc2c(c(-c3cccs3)n1)C(=O)OCC2` [Ex. 28, 6-methyl-8-thiophene-2-yl-3,4-dihydro-pyrano[3,4-c]pyridine-1-on], the inhibition at 1 µM (test conc. 1 μM) is 8%. Also, the inhibition at 10 µM (test conc. 10 μM) is 27%. Also, the inhibition at 100 µM (test conc. 100 μM) amounted to 37%. The inhibition at 1000 µM (test conc. 1 mM) is 59%.
The matching figures for `Cc1cc2c(c(-c3ccccn3)n1)C(=O)OCC2` [Ex. 29, 6-methyl-8-pyridine-2-yl-3,4-dihydro-pyrano[3,4-c]pyridine-1-on]: 10%, 15%, 18% and 30%.
In the case of `Cc1cc2c(c(-c3ccc(Cl)cc3)n1)C(=O)OCC2` [Ex. 31, 8-(4-chloro-phenyl)-6-methyl-3,4-dihydro-pyrano[3,4-c]pyridine-1-on], the “inhibitory activity in RAW 264.7 cell line on the production of TNF-α, in words” value (“inhibitory activity” for short) is listed as “superiorities over to the control compounds”. The inhibition at 1 µM (test conc. 1 μM) amounted to 100%. Besides, the inhibition at 10 µM (test conc. 10 μM) was 100%. Further, the inhibition at 100 µM (test conc. 100 μM) worked out at 100%. Further, the inhibition at 1000 µM (test conc. 1 mM) was determined as 100%.
Turning to `Cc1cc2c(c(N3CCN(C)CC3)n1)C(=O)OCC2` [Ex. 34, 6-methyl-8-(4-methyl-piperazine-1-yl)-3,4-dihydro-pyrano[3,4-c]pyridine-1-on], the inhibition at 1 µM (test conc. 1 μM) is 58%. Besides, the inhibition at 10 µM (test conc. 10 μM) amounted to 62%. The inhibition at 100 µM (test conc. 100 μM) came to 70%. In addition, the inhibition at 1000 µM (test conc. 1 mM) came out at 80%.
Regarding `Cc1cc2c(c(Nc3ccc(F)cc3)n1)C(=O)OCC2` [Ex. 35, 8-(4-fluoro-phenylamino)-6-methyl-3,4-dihydro-pyrano[3,4-c]pyridine-1-on], under “test conc. 1 μM”, the inhibition at 1 µM worked out at 9%. In addition, where the note is “test conc. 10 μM”, the inhibition at 10 µM came out at 17%. Also, the inhibition at 100 µM (test conc. 100 μM) was 26%. Moreover, the inhibition at 1000 µM (test conc. 1 mM) came to 32%.
The like results for `Cc1cc2c(c(Nc3ccc(Cl)cc3)n1)C(=O)OCC2` [Ex. 37, 8-(4-chloro-phenylamino)-6-methyl-3,4-dihydro-pyrano[3,4-c]pyridine-1-on] were, in that order, 54%, 69%, 78% and 89%.
The matching figures for `Cc1ccc(Nc2nc(C)cc3c2C(=O)OCC3)cc1` [Ex. 39, 6-methyl-8-p-tolylamino-3,4-dihydro-pyrano[3,4-c]pyridine-1-on]: 9%, 22%, 31% and 40%.
On to `Cc1cc2c(c(-c3ccccc3)n1)C(=O)OCC2` [Ex. 46, 6-methyl-8-phenyl-3,4-dihydro-pyrano[3,4-c]pyridine-1-on], for which, where the note is “test conc. 1 μM”, the inhibition at 1 µM is 3%. Moreover, the inhibition at 10 µM (test conc. 10 μM) was 9%. Further, under “test conc. 100 μM”, the inhibition at 100 µM is 19%. For the same compound, the inhibition at 1000 µM (test conc. 1 mM) is 29%.
As for `Cc1cc2c(c(Oc3ccccc3)n1)C(=O)OCC2` [Ex. 50, 6-methyl-8-phenoxy-3,4-dihydro-pyrano[3,4-c]pyridine-1-on], the inhibition at 1 µM (test conc. 1 μM) stood at 5%. Moreover, the inhibition at 10 µM (test conc. 10 μM) worked out at 9%. Further, where the note is “test conc. 100 μM”, the inhibition at 100 µM came out at 19%. In addition, the inhibition at 1000 µM (test conc. 1 mM) is 25%.
The matching figures for `Cc1cc2c(c(NCc3ccccc3)n1)C(=O)OCC2` [Ex. 51, 8-benzylamino-6-methyl-3,4-dihydro-pyrano[3,4-c]pyridine-1-on]: 9%, 15%, 21% and 30%.
In the case of `Cc1nc(O)c2c(c1-c1ccccc1)CCOC2=O` [Ex. 60, 8-hydroxy-6-methyl-5-phenyl-3,4-dihydro-pyrano[3,4-c]pyridine-1-on], the inhibition at 1 µM (test conc. 1 μM) came out at 39%. Also, the inhibition at 10 µM (test conc. 10 μM) is 48%. Besides, the inhibition at 100 µM (test conc. 100 μM) is 56%. Moreover, the inhibition at 1000 µM (test conc. 1 mM) is 78%.
In the case of `Cc1nc(Cl)c2c(c1-c1ccccc1)CCOC2=O` [Ex. 61, 8-chloro-6-methyl-5-phenyl-3,4-dihydro-pyrano[3,4-c]pyridine-1-on], the “inhibitory activity” value is given as “superiorities over to the control compounds”. Also, where the note is “test conc. 1 μM”, the inhibition at 1 µM amounted to 87%. For the same compound, the inhibition at 10 µM (test conc. 10 μM) was found to be 100%. For the same compound, the inhibition at 100 µM (test conc. 100 μM) amounted to 100%. Also, under “test conc. 1 mM”, the inhibition at 1000 µM is 100%.
As to `Cc1ncc2c(c1-c1ccccc1)CCOC2=O` [Ex. 62, 6-methyl-5-phenyl-3,4-dihydro-pyrano[3,4-c]pyridine-1-on], the “inhibitory activity” value is recorded as “superiorities over to the control compounds”. Moreover, the inhibition at 1 µM (test conc. 1 μM) was found to be 60%. Under “test conc. 10 μM”, the inhibition at 10 µM worked out at 78%. Besides, the inhibition at 100 µM (test conc. 100 μM) worked out at 89%. For the setting “test conc. 1 mM”, the inhibition at 1000 µM came to 100%.
Consider `O=C1OCCc2cc(-c3ccccc3)ncc21` [Ex. 68, 6-phenyl-3,4-dihydro-pyrano[3,4-c]pyridine-1-on], for which, for the setting “test conc. 1 μM”, the inhibition at 1 µM turned out to be 50%. For the same compound, the inhibition at 10 µM (test conc. 10 μM) turned out to be 58%. In addition, the inhibition at 100 µM (test conc. 100 μM) is 65%. For the same compound, the inhibition at 1000 µM (test conc. 1 mM) was found to be 76%.
The like results for `O=C1OCCc2cc(-c3ccccc3)nc(Cl)c21` [Ex. 73, 8-chloro-6-phenyl-3,4-dihydro-pyrano[3,4-c]pyridine-1-on] were, in that order, 56%, 63%, 72% and 80%.
The like results for `Cc1nc(Cl)cc2c1C(=O)OCC2` [Ex. 96, 6-chloro-8-methyl-3,4-dihydro-pyrano[3,4-c]pyridine-1-on] were, in that order, 38%, 46%, 56% and 63%.
Turning to `Cc1nc(-c2cccs2)cc2c1C(=O)OCC2` [Ex. 97, 8-methyl-6-(thiophene-2-yl)-3,4-dihydro-pyrano[3,4-c]pyridine-1-on], the “inhibitory activity” value is “superiorities over to the control compounds”. The inhibition at 1 µM (test conc. 1 μM) worked out at 75%. Also, the inhibition at 10 µM (test conc. 10 μM) was 84%. Also, the inhibition at 100 µM (test conc. 100 μM) amounted to 93%. Also, for the setting “test conc. 1 mM”, the inhibition at 1000 µM came out at 100%.
As to `Cc1nc(-c2ccco2)cc2c1C(=O)OCC2` [Ex. 98, 6-(furan-2-yl)-8-methyl-3,4-dihydro-pyrano[3,4-c]pyridine-1-on], the inhibition at 1 µM (test conc. 1 μM) stood at 56%. Further, the inhibition at 10 µM (test conc. 10 μM) was determined as 64%. Also, the inhibition at 100 µM (test conc. 100 μM) worked out at 72%. In addition, under “test conc. 1 mM”, the inhibition at 1000 µM was found to be 87%.
As to `Cc1nc(-c2ccc3c(c2)OCO3)cc2c1C(=O)OCC2` [Ex. 99, 6-(benzo[d][1,3]dioxol-6-yl)-8methyl-3,4-dihydro-pyrano[3,4c]pyridine-1-on], the “TNF-α Inhibition Rate (%)” value reads like this: (test conc. 1 μM) 9%; (test conc. 10 μM) 19%; (test conc. 100 μM) 22%; (test conc. 1 mM) 35%.
In the case of `Cc1nc(-c2ccc(N(C)C)cc2)cc2c1C(=O)OCC2` [Ex. 100, 6-(4-(dimethylamino)phenyl)-8-methyl-3,4-dihydro-pyrano[3,4-c]pyridine-1-on], the inhibition at 10 µM (test conc. 10 μM) is 9%. Further, the inhibition at 100 µM (test conc. 100 μM) came out at 18%. In addition, under “test conc. 1 mM”, the inhibition at 1000 µM was 29%.
With `O=C1OCCc2c1cnc1ccccc21` [Ex. 112, 3,4-dihydro-2-oxa-9-aza-phenanthrene-1-on], the inhibition at 1 µM (test conc. 1 μM) was 24%. Besides, the inhibition at 10 µM (test conc. 10 μM) is 28%. Moreover, the inhibition at 100 µM (test conc. 100 μM) was 33%. Also, for the setting “test conc. 1 mM”, the inhibition at 1000 µM was 35%.

These data come from patent publication US7601736B2, “Pyridine derivatives, a process for their preparation and a pharmaceutical composition containing the same” (SK Chemicals Co., Ltd., priority 2003, dated 2009).
